Assay results: US10555909B2, “Microencapsulation of B-alanine” (INNOBIO CORPORATION LIMITED, priority 2015, dated 2020)
Several values for one entry are separate records, joined by “and”; a condition that tells them apart may be missing. Identical values can stand only once.

How the values were obtained:
[1] = Tingling sensation evaluation after oral administration; type: in vivo
Description: The evaluation method of the tingling sensation in the present invention is that: a subject respectively administrates unsustained-release microencapsulated material containing a certain amount of β-alanine and sustained-release microencapsulated β-alanine. The time, intensity and duration of having the abnormal sensation are recorded.
The tingling sensation after oral administration of the β-alanine products A and D in Table 1 was evaluated according to a tingling sensation evaluation method, and an administration dosage, based on the β-alanine, is 22.8 mg/Kg (body weight).
In the tingling evaluation experiment in Table 5, the dosage of the subject was 45.7 mg/kg (body weight).

[2] = Release rate experiment, USP <711> Dissolution, Apparatus 2, 50 rpm, delayed-release method B; type: physicochemical
Description: Regarding to the measurement to the release rate in the present invention, the release rate experiment in 0.1N hydrochloric acid solution and pH6.8 phosphate buffer is conducted referring to USP<711>DISSOLUTIO and using Apparatus 2 with a rotate speed of 50 rpm by DELAYED-RELEASE DOSAGE FORMS method B.

[3] = Size distribution of β-alanine before and after sustained-release microencapsulation; type: physicochemical

Dissolution in water (in words): easy to be dissolved in water
Administration evaluation: Intensity ([1]; 22.8 mg/Kg body weight based on β-alanine, one value per subject, 0 no sensation, 1-5 acceptable, 6-10 unacceptable): 6 (2×) and 7
Duration of the abnormal sensation (lasting for) ([1]; 22.8 mg/Kg, per subject): 45 min and lasting for 30 min. and 1 h
Release in 0.1N hydrochloric acid solution (in words) ([2]; 0.1N hydrochloric acid solution): quickly and completely released
Release in pH6.8 phosphate buffer (in words) ([2]; pH6.8 phosphate buffer): quickly and completely released
Size distribution 300-450 μm ([3]; fraction 300-450 μm): 0%
Size distribution 450-900 μm ([3]; fraction 450-900 μm): 43.7%
Size distribution 900-1000 μm ([3]; fraction 900-1000 μm): 56.3%
Compound: NCCC(=O)O [Product A, β-alanine]
Time of having the abnormal sensation (onset) ([1]; 22.8 mg/Kg, per subject): 15 min and sensation in the hands, face and ears in 10 min, and 25 min
